# Literature values in US6909021B2, “Method of extracting lutein from green plant materials” (Alfalfa America, Inc., priority 2003, dated 2005).
# Legend:
# [1] = tested on: age-related macular degeneration (AMD); conditions: dietary intake
# [2] = water wash of green protein chloroplast fraction
solubility in water [2],Compound,effect on the rate of AMD [1]
–,CC1=C(/C=C/C(C)=C/C=C/C(C)=C/C=C/C=C(C)/C=C/C=C(C)/C=C/C2=C(C)CCCC2(C)C)C(C)(C)CCC1 [Beta-carotene],not seen to have an effect
very little solubility,CC1=C[C@H](O)CC(C)(C)[C@H]1/C=C/C(C)=C/C=C/C(C)=C/C=C/C=C(C)/C=C/C=C(C)/C=C/C1=C(C)C[C@@H](O)CC1(C)C [Lutein],–
–,[Zn] [zinc],not seen to have an effect
–,vitamin A,not seen to have an effect
–,vitamin E,not seen to have an effect
